Measurements taken from a melting point compilation (Tetko et al.; mined from patent text by program, amines drawn as free bases though some values may be those of a salt).
Residues, ends and D or L forms follow the SMILES beside them.

| melting point [°C] | SMILES |
| --- | --- |
| 157 to 158 | CC(=O)N1CCC(CCC(=O)c2ccc3c(c2)CCN3c2ccncc2)CC1 |
| 137 to 138 | CC(C)(Cc1ccc(Cl)cc1)C(C#N)C(=O)O (stereo not given) |
| 128 to 130 | CNCC(=O)N1Cc2cccc3c2N(CC3)c2ccccc21 |
| 200 to 201 | COc1ccc(C(=O)Nc2ccccc2)cc1Oc1ccccc1 |
| 154 to 159 | CCOC(=O)c1c(C)nc(N2CCNCC2)nc1N1CCS(=O)(=O)CC1 |
| 128 | CCCC1CCC2c3ccc(OCC)c(F)c3OC2C1 (stereo not given) |
| 186 to 189 | COc1cc(Nc2c(C#N)cnc3cc(-c4cnc(C=O)n4C)ccc23)c(Cl)cc1Cl |
| 127 to 128 | OCCc1nccn1CCCCc1ccc(OCc2coc(/C=C/c3ccc(Cl)cc3)n2)cc1 |
| 194 to 196 | O=S(=O)(Cc1ccc(O)cc1)Nc1ncc(-c2ccc(O)cc2)nc1Cc1ccccc1 |
| > 300 | O=c1c2cc(F)c(F)cc2[nH]c2c1cnn2-c1ccccn1 |
| 111 to 112 | CCOC(=O)/C(=N\OC(C)(C)C)c1csc(N)n1 |
| 164 to 165 | N#CCCNC(=O)c1cccc(-c2ccnc3cc(Cc4cccc(C(F)(F)F)c4)oc23)c1 |
| 80 to 81 | Cc1csc(C)c1CO |
| 127 to 129 | COc1ccc2c(ncn2C(=O)OC(C)(C)C)c1CBr |
| > 210 | O=C(O)c1cc(NCc2ccc(F)cc2)ccc1O |
| > 260 | O=C1c2nccc(Cl)c2-c2nc3ccccc3c3ccnc1c23 |
| 119 to 120 | CN(C)CCCCC1CCCN(CCNC(=O)N2c3ccccc3C(=O)Nc3cccnc32)C1 (stereo not given) |
| 112 to 115 | CCOC(=O)N(c1ccc(Cl)cc1)c1ccccc1N |
| 130 to 131 | CC(=O)c1c(C)sc2ccnn12 |
| 196 to 197 | CCOC(=O)CCNC(=O)c1oc2cc(-c3ccc(Cn4c(C)nc5ccccc54)cc3)ccc2c1C |
| 168 to 170 | CCCCc1cn(CCC(C)C)c(=O)n1Cc1ccc(-c2ccccc2-c2nnn[nH]2)nc1 |
| 151 to 152 | COc1cc(OC)cc(-c2oc3ncnc(NC4CCCCCC4)c3c2-c2ccccc2)c1 |
| 235 | CC(=O)c1ccc(C(=O)c2ccc(O)c(CC(=O)O)c2)cc1 |
| 90 to 110 | NCCSc1ccc(CCC(=O)O)cc1 |

| melting point [°C] | SMILES |
| --- | --- |
| 156 to 157 | COc1cc(-c2cc(O)c(SCc3ccccc3)c(=O)o2)cc(OC)c1OC |
| 149 to 155 | O=C(CNc1ccc2[nH]c(=O)sc2c1)N1CCC(Cc2ccc(F)cc2)CC1 |
| 71 to 72 | O=C1CC(c2ccccc2)Cc2nccc(Cl)c21 (stereo not given) |
| > 252 | Oc1cccc2c(Cl)ncnc12 |
| 116 to 120 | CN(C)C(=O)C=Cc1c(C#N)cnn1-c1ncc(C(F)(F)F)cc1Cl |
| 245 to 247 | Cc1c(Nc2c(C#N)cncc2-c2nccs2)ccc2[nH]ccc12 |
| 182 | COc1ccc(Cl)c(Oc2c(Cl)nc(C)nc2NS(=O)(=O)c2ccc(C(C)(C)C)cc2)c1 |
| 137 to 139 | C=CCSC1=C(C(=O)OCc2ccc([N+](=O)[O-])cc2)N2C(=O)[C@@H]([C@H](C)O)[C@H]2C1 |
| 235 to 242 | O=c1ccn(CCO)c(Cc2cccc(F)c2)c1O |
| 89.5 to 90.5 | COC(=O)c1ccc(OCC2CC(=O)N(c3ccc(OCC(C)(C)O)cc3)C2)cc1 (stereo not given) |
| 152 to 157 | c1ccc2c(c1)CCCC1C2=NNC1c1ccncc1 (stereo not given) |
| 142 to 143 | C=C1CC2C(CCC3(C)C2CCC3(OC)C(=O)COC(C)=O)C2(C)CCC(=O)C=C12 (stereo not given) |
| 150 to 152 | CC1CC(NC(=O)C(F)(F)F)=NN1c1ccc(Cl)c(Cl)c1 (stereo not given) |
| 191 to 192 | CCSC1OC(CO)C(OC2OC(CO)C(O)C(O)C2O)C(O)C1O (stereo not given) |
| 230 to 233 | CC(O)=C(C#N)C(=O)Nc1ccc(C(F)(F)F)cc1 |
| 131 to 132 | COC(=O)c1ccc(Oc2c(-c3ccc(OCc4ccccc4)cc3)c(C(F)(F)F)cc3ccccc23)cc1 |
| 100 to 104 | CCCCCCCCCCNc1ccc(C(=O)Nc2cc(C(=O)NCCSC)ccc2OC)cc1 |
| 46 to 47.5 | CCOC(=O)C(S)CC(=O)c1ccc(Oc2ccccc2)cc1 (stereo not given) |
| 129 to 130 | CC(=Cn1ccnc1)C(=O)c1ccc(Cl)cc1Cl |
| 95 | COc1cc(C(=O)c2c(C)c(C(=O)OCc3ccccc3)c3cc(NC(=O)OC(C)(C)C)ccn23)ccc1[N+](=O)[O-] |
| 95 to 97 | COc1ccc(CN2CCC(NC(=O)OC(C)(C)C)CC2)cc1 |
| 100 to 102 | COc1ccccc1NC(=O)C1CCc2nc[nH]c2C1 (stereo not given) |
| 152 to 155 | NC(=O)c1ccc(C2CCCCCC2)c(Cl)c1 |
| 140 | IC#CCSc1ccncc1 |

| melting point [°C] | SMILES |
| --- | --- |
| 302 | Cc1cc(O)n2nc(S(=O)(=O)Nc3c(Cl)cccc3Cl)nc2n1 |
| 245 to 246 | CNc1cc(Oc2ccc(NC(=O)Nc3ccc(C(C)(C)C)cc3)cc2)ncn1 |
| 105 to 106 | NN(Cc1ccccc1[N+](=O)[O-])c1ccc(Cl)cc1 |
| 138 | CCCC(=O)C1c2cccc(O)c2C(=O)c2c(O)cccc21 |
| 155 to 159 | O=C(c1ccncc1)[N+]1([O-])CCC(=C2c3ccccc3CCn3ccnc32)CC1 (stereo not given) |
| 160 to 162 | NC(=O)CCCN1C(=O)c2ccccc2C1=O |
| 254 | COc1cc(N=Nc2ccc3[nH]nnc3c2)c(O)c2ccccc12 |
| 189 to 192 | NC(=S)NN=C(CCCOC(=O)Nc1cccc2ccccc12)c1ccccc1 |
| 173 to 175 | Cc1ccc2c(c1)c(=O)c(S(C)=O)nn2C (stereo not given) |
| 244 to 245 | COC(=O)[C@H](Cc1ccc(NC(=O)c2c(Cl)cccc2Cl)cc1)NC(=O)c1c(C)cccc1Cl |
| 142 to 143 | CCCCn1sc2nccn2c1=O |
| 159 to 161 | COc1ccc(/C(=C\C=C\C(=O)O)c2ccccc2OC)cc1 |
| 90 to 92 | CCc1c(C(=O)C(N)=O)c2ccsc2n1Cc1ccccc1 |
| 214 to 215 | Cc1cc2c(-c3cccc(C=O)c3)c(CC(=O)Nc3ccc(F)cc3C(F)(F)F)c(=O)oc2cc1Cl |
| 211 to 212 | O=C1c2ccccc2C(=O)N1CC(=O)N1c2ccccc2N(Cc2ccncc2)C(=O)[C@H]2CCC[C@H]21 (relative stereo) |
| 208 | CCCC1=C(C#N)C(c2cccc3oc(C)nc23)c2c[nH]nc2N1 (stereo not given) |
| > 260 | Cc1cccc(NC(=O)NCc2cccc3c2C(=O)N(C2CCC(=O)NC2=O)C3=O)c1 (stereo not given) |
| 228 to 232 | O=C(Oc1ccccc1N1c2ccccc2S(=O)(=O)c2ccccc21)c1ccccc1 |
| 158 | CN1CCC(Cc2nc3ccccc3n2Cc2ccc(CO)o2)CC1 |
| 173 | CCCC(CCC)N1Cc2c(C(=O)OC)cc(NS(C)(=O)=O)cc2C1=O |
| 95.6 to 97 | CC(C)(C)[Si](OC1CCC(O)C1COC(c1ccccc1)(c1ccccc1)c1ccccc1)(c1ccccc1)c1ccccc1 (stereo not given) |
| 246 to 249 | O=C(CSc1ccccc1)Nc1c(Cl)ccc2nc(N3CC[C@@H](O)C3)ccc12 |
| 102 to 103 | CNC1=NN(c2ccc(Cl)cc2)C(C)C1 (stereo not given) |
| 93 to 95 | Cc1ccc(C)c(-c2nn(C(C)(C)C(=O)N(C)C)cc2C)c1 |

| melting point [°C] | SMILES |
| --- | --- |
| 153 to 155 | CCOC(=O)c1cncnc1Nc1ccccc1NC |
| 45 to 46 | CC1=C(N)C(=O)C2CC1C2(C)C (stereo not given) |
| 202 to 204 | Nc1ccc(S(=O)(=O)c2cc(N)cc(Br)n2)cc1 |
| 108 | CN(CCn1ncc(-c2ccccc2)cc1=O)CC(O)c1ccc(NS(C)(=O)=O)cc1 (stereo not given) |
| 149 to 150 | CC(C)(C)NC(=O)c1ccc(I)cc1 |
| 176 to 179 | O=C(O)C(CSc1nc2ccccc2[nH]1)CS(=O)(=O)c1ccc(-c2ccc(Cl)cc2)cc1 (stereo not given) |
| 154 | c1cc(C2CCC(c3ccc(OCC4CO4)cc3)CC2)ccc1OCC1CO1 (stereo not given) |
| 130 to 132 | COC(=O)N1CC(C(N)=O)C(c2ccc(OC)c(OC3CCCC3)c2)C1 (stereo not given) |
| 168 to 170 | COc1ccc(N(C(=O)C(C)c2ccccc2)c2cccc(Nc3c(N)c(=O)c3=O)c2)cc1 (stereo not given) |
| 175 | O=C(O)Cc1ccc2oc(-c3ccccc3)nc2c1 |
| 85 to 86 | Cc1c(-c2cc([N+](=O)[O-])c(F)cc2F)ncnc1C(F)F |
| 219 to 221 | Cc1c(Cc2cccnc2)oc2ccc(C(=O)O)cc12 |
| 180 to 182 | COCCc1nc2c(N)nc3c(c2n1CCOCCNC(=O)Nc1ccccc1)CCCC3 |
| 154 to 156 | CC(NC(=O)C(N)Cc1ccccc1)C(=O)NCC(=O)NC(Cc1ccccc1)C(=O)NCC(=O)NC(CCCNC(=N)N)C(=O)O (stereo not given) (H-FAGFGR-OH; configuration not given here) |
| 161 to 162 | Cn1cnc(-c2ccccc2)c1-c1ccncc1 |
| 200 to 202 | O=c1[nH]c2ccccc2n1C1=CCN(C2C=CC(c3ccc(F)cc3)(c3ccc(F)cc3)CC2)CC1 (stereo not given) |
| 119 to 122 | CCOC(=O)c1cc(S(N)(=O)=O)c(Cl)cc1Cl |
| 139 to 142 | CC(C)OC(=O)c1cc(-c2ccncc2)sc1-c1ccncc1 |
| 78 to 80 | N#Cc1cn(CC(O)CCl)nc1[N+](=O)[O-] (stereo not given) |
| 115 to 117 | CCN(Cc1ccccc1)C(=O)c1c(-c2ccncc2)c(-c2ccc(F)cc2)nn1CC |
| 271 | COc1ccc(N2C(=O)C(O)=C(C(=O)c3ccc(C(C)C)cc3)C2c2ccc(OC(F)(F)F)cc2)nn1 (stereo not given) |
| 106 to 108 | CC(C)(c1ccc(Oc2cccc(N)c2)cc1)c1ccc(Oc2cccc(N)c2)cc1 |
| 156 to 158 | COc1cc(OC)nc(-c2c(N)n(S(=O)(=O)C(F)F)c3ccccc23)n1 |

| SMILES | melting point [°C] |
| --- | --- |
| COc1ccc(CC2N(C)CCC(OC)(OC)C2(C)C)cc1 (stereo not given) | 91 to 92.5 |
| O=NN1CCN(Cc2c[nH]c3ccccc23)CC1 | 116 to 118 |
| OC(CCN1CC=C(c2ccccc2)CC1)c1ccc(Cl)cc1Cl (stereo not given) | 103 to 104 |
| Cc1ccc(S(=O)(=O)C(CCl)Sc2ccc(Br)cc2)cc1 (stereo not given) | 82.5 to 84 |
| N#CC1CN1C(=O)NC(=O)c1ccccc1 (stereo not given) | 144 to 146 |
